Common to all, as to experiment: NCI-60 cell line screen, 48 h
Assay [1] concerns HL-60(TB) leukemia.
Assay [2] concerns BT-549 breast.
Assay [3] relates to CAKI-1 renal.
The test system of assay [4] is SK-MEL-5 melanoma.
Assay [5] has as its system PC-3 prostate.
Assay [6] relates to OVCAR-5 ovarian.
Assay [7] concerns SK-OV-3 ovarian.
Assay [8] has as its system NCI-H460 lung.
Assay [9] relates to SF-268 CNS.
Assay [10] concerns M14 melanoma.

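Where inhibition never reached the appropriate level, the endpoint shown equals the highest concentration tested. Otherwise, values were interpolated linearly from a five-concentration, 48-hour dose response in 96-well plates. GI50: concentration for 50% inhibition of growth. TGI: total growth inhibition.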

For the compound `O=C(CCC(C(=O)c1ccccc1)c1ccccc1)c1ccccc1` (stereo not given), the GI50 in assay [1] was 4.72 µM; in assay [2], 7.92 µM; in assay [3], 5.7 µM; in assay [4], 9.29 µM; in assay [5], 7.94 µM; in assay [6], 80.4 µM. The GI50 in assay [7] is 78.8 µM; in assay [8], 6.5 µM; in assay [9], 35.6 µM; in assay [10] it was 6.82 µM. For the same compound, the TGI was 55.9 µM in assay [1]; 86.7 µM in assay [2]; greater than 100 µM in assay [3]; 34.3 µM in assay [4]; greater than 100 µM in [5]; greater than 100 µM in assay [6]. For the same compound, the TGI in assay [7], in assay [8], in [9] and in assay [10] was greater than 100 µM throughout.

Turning to `C[C@H]1[C@H]2[C@H]3CC[C@@H]4[C@@]5(C)C/C(=C/c6cccnc6)C(=O)C(C)(C)[C@@H]5CC[C@@]4(C)[C@]3(C)CC[C@]23CO[C@]1(C)[C@@H](C(=O)/C=C\c1cccnc1)C3`, the GI50 was 0.794 µM in [1]; 0.785 µM in [2]; 1.45 µM in assay [3]; 0.836 µM in [4]; 0.498 µM in [5]; 1.46 µM in assay [6]. Further, the GI50 in assay [7] was 5.9 µM; in [8], 0.929 µM; in assay [9] it was 1.27 µM; in assay [10] it was 1.57 µM. Also, the TGI is 2.53 µM in assay [1]; 1.83 µM in assay [2]; greater than 15.4 µM in assay [3]; 1.54 µM in [4]; 3.37 µM in assay [5]; 4.43 µM in [6]. Also, the TGI in assay [7] is greater than 50 µM; in assay [8], 1.94 µM; in [9], 4.17 µM; in assay [10], 11.9 µM.

With `CCOC(=O)/C(=C(/C)NCC(C)C)c1cc(O)c(O)c2c(C)cc(=O)[nH]c12`, the GI50 was 2.63 µM in assay [1]; 6.22 µM in assay [2]; 5.17 µM in assay [3]; 11.1 µM in assay [4]; 11.1 µM in assay [5]; 64.7 µM in assay [6]. Besides, the GI50 in assay [7] was 13 µM; in [8], 4.32 µM; in assay [9], 4.67 µM; in assay [10] it was 4.53 µM. The TGI is greater than 100 µM in [1]; 66.7 µM in [2]; greater than 100 µM in assay [3]; greater than 100 µM in assay [4]; greater than 100 µM in [5]; greater than 100 µM in [6]. Besides, the TGI in [7], in assay [8], in assay [9] and in assay [10] was greater than 100 µM throughout.

As for `CC(=O)C1(N=Nc2ccc(S(N)(=O)=O)cc2)CCOC1=O` (stereo not given), the TGI in [1], in [2], in assay [3], in [4], in assay [5] and in assay [6] was greater than 100 µM throughout. In addition, the TGI in assay [7], in assay [8], in [9] and in assay [10] was greater than 100 µM throughout.

On to `CCOC(=O)[C@@H](C)C[C@H](Cc1ccccc1)NC(=O)c1csc([C@@H](C[C@H](C(C)C)N(C)C(=O)[C@H](CC)NC(=O)[C@H]2CCCCN2C)OC(C)=O)n1`, for which the GI50 is less than 0.00167 µM in [1]; 0.00368 µM in [2]; less than 0.00167 µM in assay [3]; less than 0.00167 µM in [4]; less than 0.00167 µM in assay [5]; 0.0108 µM in assay [6]. In addition, the GI50 was less than 0.00167 µM in [7], less than 0.00167 µM in [8], less than 0.027 µM in [9] and 0.00171 µM in [10]. Besides, the TGI in assay [1] is 0.0114 µM; in [2], 0.143 µM; in [3], greater than 16.7 µM; in assay [4] it was 0.0432 µM; in [5] it was greater than 16.7 µM; in [6] it was greater than 16.7 µM. The TGI in [7] was greater than 16.7 µM; in [8] it was greater than 16.7 µM; in assay [9], greater than 16.7 µM; in assay [10] it was 0.00762 µM.

For `COc1ccc(-c2c(-c3cc(OC)c(OC)c(OC)c3)noc2N)cc1`, the GI50 was 0.0215 µM in [1]; 0.0215 µM in [2]; less than 0.01 µM in assay [3]; less than 0.01 µM in assay [4]; less than 0.0119 µM in assay [5]; 0.0441 µM in [6]. Moreover, the GI50 is less than 0.011 µM in assay [7], less than 0.015 µM in [8], less than 0.0181 µM in assay [9] and less than 0.01 µM in assay [10]. Moreover, the TGI is 0.0589 µM in assay [1]; 0.0673 µM in assay [2]; greater than 100 µM in [3]; 0.257 µM in assay [4]; greater than 100 µM in assay [5]; greater than 70 µM in assay [6]. Besides, the TGI in assay [7] is 16.5 µM; in [8], greater than 33.8 µM; in [9], 16.3 µM; in assay [10] it was greater than 100 µM.

Turning to `N#CS.N=C=S.N=C=S.[Cu+2].[NH2-].[NH2-].[NH2-].[NH2-].c1ccc2ncccc2c1`, the GI50 is greater than 100 µM in assay [1]; greater than 100 µM in assay [2]; greater than 100 µM in assay [3]; 17.8 µM in assay [4]; greater than 100 µM in assay [5]; 21.6 µM in assay [6]. For the same compound, the GI50 was 24.4 µM in assay [7], 22.6 µM in assay [8], 49.7 µM in assay [9] and greater than 100 µM in assay [10]. Further, the TGI in [1] was greater than 100 µM; in assay [2], greater than 100 µM; in assay [3], greater than 100 µM; in assay [4] it was 38.7 µM; in assay [5], greater than 100 µM; in assay [6], 41 µM. For the same compound, the TGI in assay [7] is 62.7 µM; in assay [8], 48.7 µM; in assay [9] it was greater than 100 µM; in assay [10], greater than 100 µM.

For the origin of these results see PubChem BioAssay (NCI).
